Here are results for one compound from BindingDB's records for doi:10.1016/j.bmcl.2015.12.052 (Janssen Research and Development, 2016).

The assay has as its target T1, P2X purinoceptor 7 (Rattus norvegicus, UniProt Q64663).
T1 sequence (Q64663 whole entry): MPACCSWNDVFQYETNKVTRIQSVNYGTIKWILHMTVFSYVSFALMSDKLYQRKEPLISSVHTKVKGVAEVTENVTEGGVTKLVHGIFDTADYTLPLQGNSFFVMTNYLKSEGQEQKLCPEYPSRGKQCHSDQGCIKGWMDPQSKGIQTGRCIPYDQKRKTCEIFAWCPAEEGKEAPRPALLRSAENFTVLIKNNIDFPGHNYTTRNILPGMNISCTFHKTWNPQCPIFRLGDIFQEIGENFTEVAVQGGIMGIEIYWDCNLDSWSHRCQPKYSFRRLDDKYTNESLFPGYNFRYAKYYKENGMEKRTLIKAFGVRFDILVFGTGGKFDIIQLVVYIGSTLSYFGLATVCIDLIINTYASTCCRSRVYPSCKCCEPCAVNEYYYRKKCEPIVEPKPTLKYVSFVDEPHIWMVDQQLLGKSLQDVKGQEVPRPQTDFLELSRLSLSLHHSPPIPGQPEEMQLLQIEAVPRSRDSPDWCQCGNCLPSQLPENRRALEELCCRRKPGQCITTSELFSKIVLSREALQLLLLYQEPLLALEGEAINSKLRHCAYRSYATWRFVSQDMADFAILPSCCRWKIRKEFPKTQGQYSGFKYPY
Kind of assay: Antagonist activity at rat P2X7 receptor expressed in 1321N1 cells assessed as inhibition of Bz-ATP-induced Ca2+ flux after 30 mins by FLIPR assay.

Consider `C[C@H]1Cn2c(nnc2-c2cnccn2)C(=O)N1Cc1ccccc1` [US10047092, 79], for which the IC50 was over 10 µM.
